Assay results as given in patent publication US11753445B2, “Therapeutic peptides” (COHBAR, INC., priority 2016, dated 2023).
Several values for one entry are separate records, joined by “and”; a condition that tells them apart may be missing. Identical values can stand only once.

Experiments:
Human Primary Adipocytes [1] = assay: Free fatty acid levels in cultured human primary adipocytes, forskolin stimulated (Example 5); type: cell-based; settings: test peptides 25 μM; forskolin 1 μM
Procedure: Human primary adipocytes were seeded at 5,000-100,000 cells per well on 96-well, 48-well, or 24-well plate in Pre-adipocyte Medium (Zen-Bio, Durham, N.C.) and grown to confluence at 37° C. in a humidified atmosphere of 5% CO2/95% air. Two days after confluence, cells were placed in Adipocyte Differentiation Medium (Zen-Bio, Durham, N.C.) and cultured for three additional days at 37° C. in a humidified atmosphere of 5% CO2/95% air. The culture media was then replaced with Adipocyte Maintenance Medium (Zen-Bio) and the cells were maintained for an additional 11-21 days at 37° C. in a humidified atmosphere of 5% CO2/95% air with partial medium replacement every other day. Following 14-24 days of differentiation, test peptides were added at a final concentration of 25 μM and incubated for 18-20 hours in Adipocyte Maintenance Medium at 37° C. in a humidified atmosphere of 5% CO2/95%. After 18-20 hours, the media was exchanged with fresh Adipocyte Maintenance Medium containing test peptides and incubated for 1 h at 37° C. in a humidified atmosphere of 5% CO2/95%. After 1 h media was exchanged with Assay Buffer (Zen-Bio) containing forskolin (1 μM) (added to all samples except untreated controls) and test peptides. Cells were incubated for a further 3 hours at 37° C. in a humidified atmosphere of 5% CO2/95%. Free fatty acid concentrations in the media were determined using a Free Fatty Acid Assay Kit (Zen-Bio) according to the manufacturer's instructions using a plate reader (540 nm). Absorbance values were corrected for untreated background and expressed relative to forskolin treated cells. Treatment with forskolin (1 μM) alone was used as the free fatty acid level stimulatory control. The relative standard deviation of the forskolin control was <20%. […] Free fatty acid levels for insulin (100 nM) treatment were <8% of the forskolin control value.

Human Primary Adipocytes [2] = assay: Free fatty acid levels in cultured human primary adipocytes, isoproterenol stimulated (Example 4); type: cell-based; settings: test peptides 25 μM; isoproterenol 1 nM
Procedure: Human primary adipocytes were seeded at 5,000-100,000 cells per well on 96-well, 48-well, or 24-well plates in Pre-adipocyte Medium (Zen-Bio, Durham, N.C.) and grown to confluence at 37° C. in a humidified atmosphere of 5% CO2/95% air. Two days after confluence, cells were placed in Adipocyte Differentiation Medium (Zen-Bio, Durham, N.C.) and cultured for three additional days at 37° C. in a humidified atmosphere of 5% CO2/95% air. The culture media was then replaced with Adipocyte Maintenance Medium (Zen-Bio) and the cells were maintained for an additional 11-21 days at 37° C. in a humidified atmosphere of 5% CO2/95% air with partial medium replacement every other day. Following 14-24 days of differentiation, test peptides were added at a final concentration of 25 μM and incubated for 18-20 hours in Adipocyte Maintenance Medium at 37° C. in a humidified atmosphere of 5% CO2/95%. After 18-20 hours, the media was exchanged with fresh Adipocyte Maintenance Medium containing test peptides and incubated for 1 h at 37° C. in a humidified atmosphere of 5% CO2/95%. After 1 h media was exchanged with Assay Buffer (Zen-Bio) containing isoproterenol (1 nM) (added to all samples except untreated controls) and test peptides. Cells were incubated for a further 3 hours at 37° C. in a humidified atmosphere of 5% CO2/95%. Free fatty acid concentrations in the media were determined using a Free Fatty Acid Assay Kit (Zen-Bio) according to the manufacturer's instructions using a plate reader (540 nm). Absorbance values were corrected for untreated background and expressed relative to isoproterenol treated cells. Treatment with isoproterenol (1 nM) alone was used as the free fatty acid level stimulatory control. The relative standard deviation of the isoproterenol control was <14%. […] Free fatty acid levels for insulin (100 nM) treatment were <5% of the isoproterenol control value.

3T3-L1 Adipocytes [3] = assay: Free fatty acid levels in cultured mouse 3T3-L1 adipocytes, forskolin stimulated (Example 3); type: cell-based; settings: test peptides 25 μM; forskolin 1 μM
Procedure: Mouse 3T3-L1 cells were seeded at 1,000-20,000 cells per well on 96-well, 48-well, or 24-well plates in Pre-adipocyte Medium (Zen-Bio, Durham, N.C.) and grown to confluence at 37° C. in a humidified atmosphere of 5% CO2/95% air. Two days after confluence, cells were placed in Adipocyte Differentiation Medium (Zen-Bio, Durham, N.C.) and cultured for three additional days at 37° C. in a humidified atmosphere of 5% CO2/95% air. The culture media was then replaced with Adipocyte Maintenance Medium (Zen-Bio) and the cells were maintained for an additional 9-14 days at 37° C. in a humidified atmosphere of 5% CO2/95% air with partial medium replacement every other day. Following 12-17 days of differentiation, test peptides were added at a final concentration of 25 μM and incubated for 18-20 hours in Adipocyte Maintenance Medium at 37° C. in a humidified atmosphere of 5% CO2/95%. After 18-20 hours, the media was exchanged with fresh Adipocyte Maintenance Medium containing test peptides and incubated for 1 h at 37° C. in a humidified atmosphere of 5% CO2/95%. After 1 h media was exchanged with Assay Buffer (Zen-Bio) containing forskolin (1 μM) (added to all samples except untreated controls) and test peptides. Cells were incubated for a further 3 hours at 37° C. in a humidified atmosphere of 5% CO2/95%. Free fatty acid concentrations in the media were determined using a Free Fatty Acid Assay Kit (Zen-Bio) according to the manufacturer's instructions using a plate reader (540 nm). Absorbance values were corrected for untreated background and expressed relative to forskolin treated cells. Treatment with forskolin (1 μM) alone was used as the free fatty acid level stimulatory control. The relative standard deviation of the forskolin control was <10%. […] Free fatty acid levels for insulin (100 nM) treatment were <9% of the forskolin control value.

3T3-L1 Adipocytes [4] = assay: Free fatty acid levels in cultured mouse 3T3-L1 adipocytes, isoproterenol stimulated (Example 2); type: cell-based; settings: test peptides 25 μM; isoproterenol 1 nM
How it was run: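 Release of free fatty acids, read at 540 nm, was stimulated with 1 nM isoproterenol for 3 h in mouse 3T3-L1 adipocytes (12–17 days of differentiation). Cells were pre-exposed to 25 μM peptide for 18–20 h plus 1 h, with peptide kept in during stimulation. Values are background-subtracted and normalised to isoproterenol alone.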

[5] = Stability in mouse plasma, peptides 100 uM (Example 14); type: in vitro ADME; settings: mouse plasma 37° C., peptide 100 uM; for remaining at 0.25 h, 100 uM / remaining at 0.5 h, 100 uM / remaining at 1 h, 100 uM / remaining at 2 h, 100 uM / remaining at 3 h, 100 uM: pooled mouse plasma; for remaining at 0.25 h, 100 uM: 15 min, read-out: % Remaining at Each Time Point: 15 min; for remaining at 0.5 h, 100 uM: 30 min, read-out: % Remaining at Each Time Point: 30 min; for remaining at 1 h, 100 uM: 60 min, read-out: % Remaining at Each Time Point: 60 min; for remaining at 2 h, 100 uM: 120 min, read-out: % Remaining at Each Time Point: 120 min; for remaining at 3 h, 100 uM: 180 min, read-out: % Remaining at Each Time Point: 180 min
Procedure: Peptides (100 uM) were incubated in pooled mouse plasma at 37° C. and samples were removed and immediately analyzed for the concentration of intact peptide by LC/MS/MS over the course of 3 hours. The percent of peptide remaining in plasma at each time point was calculated relative to the initial peak area (Table 12).

[6] = test system: Diet Induced Obese (DIO) mice; assay: Body weight, blood glucose and fat mass in Diet Induced Obese mice, 10 days (Example 6); type: in vivo, Male C57BL/6 mice; settings: male DIO mice; 10 days twice daily intraperitoneal 15 mg/kg; N = 8; mean
Procedure: Animals were randomized to treatment groups based on blood glucose levels and body weight. The peptides of the invention were administered to two groups of male DIG mice once or twice daily by subcutaneous or intraperitoneal injection at a dose of 15 mg/kg/dose for 10 days (N=8 animals per treatment group). An additional group of male DIG mice (n=8) received vehicle (water or saline) alone. Body weight, blood glucose levels and food intake were monitored. Body mass distribution (fat vs lean) was determined by quantitative whole body NMR prior to dosing and at the end of dosing.

Ac-RWQEMGYIFYPRKLR-NH2 [compound 52]
Free Fatty Acid Levels in Human Primary Adipocytes Expressed as a Percent of Forskolin Control: Percent of Control Value (Human Primary Adipocytes [1]): 107%
Free Fatty Acid Levels in Human Primary Adipocytes Expressed as a Percent of Isoproterenol Control: Percent of Control Value (Human Primary Adipocytes [2]): 126%
Free Fatty Acid Levels in 3T3-L1 Adipocytes Expressed as a Percent of Forskolin Control: Percent of Control Value (3T3-L1 Adipocytes [3]): 88.0%
Free Fatty Acid Levels in 3T3-L1 Adipocytes Expressed as a Percent of Isoproterenol Control: Percent of Control Value (3T3-L1 Adipocytes [4]): 85.6% and 99.5%

H-MRAQEMGYIFYPRKLR-OH [compound 8]
% Remaining at Each Time Point: 0 min [5]: 100%
remaining at 0.25 h, 100 uM [5]: 13.2%
remaining at 0.5 h, 100 uM [5]: 11.2%
remaining at 1 h, 100 uM [5]: 10.1%
remaining at 2 h, 100 uM [5]: 11.7%
remaining at 3 h, 100 uM [5]: 9.81%
Difference from Vehicle Control: Decrease from Baseline in Blood Glucose [6]: -20.0 mg/dL
Difference from Vehicle Control: Decrease from Baseline in Body Weight (%) [6]: −0.24%
Difference from Vehicle Control: Decrease from Baseline in Fat Mass [6]: -0.20 g
Free Fatty Acid Levels in Human Primary Adipocytes Expressed as a Percent of Forskolin Control: Percent of Control Value (Human Primary Adipocytes [1]): 107%
Free Fatty Acid Levels in Human Primary Adipocytes Expressed as a Percent of Isoproterenol Control: Percent of Control Value (Human Primary Adipocytes [2]): 22.2%

H-MRWQEMGYIFYPR-OH [compound 47]
% Remaining at Each Time Point: 0 min [5]: 100%
remaining at 0.25 h, 100 uM [5]: 56.7%
remaining at 0.5 h, 100 uM [5]: 49%
remaining at 1 h, 100 uM [5]: 38.9%
remaining at 2 h, 100 uM [5]: 23.8%
remaining at 3 h, 100 uM [5]: 18.3%
Free Fatty Acid Levels in Human Primary Adipocytes Expressed as a Percent of Forskolin Control: Percent of Control Value (Human Primary Adipocytes [1]): 89.9%
Free Fatty Acid Levels in Human Primary Adipocytes Expressed as a Percent of Isoproterenol Control: Percent of Control Value (Human Primary Adipocytes [2]): 60.5%
Free Fatty Acid Levels in 3T3-L1 Adipocytes Expressed as a Percent of Forskolin Control: Percent of Control Value (3T3-L1 Adipocytes [3]): 45.3%
Free Fatty Acid Levels in 3T3-L1 Adipocytes Expressed as a Percent of Isoproterenol Control: Percent of Control Value (3T3-L1 Adipocytes [4]): 24.5%

H-MRWQEMGYIFYPRK-OH [compound 46]
% Remaining at Each Time Point: 0 min [5]: 100%
remaining at 0.25 h, 100 uM [5]: 28.1%
remaining at 0.5 h, 100 uM [5]: 26.4%
remaining at 1 h, 100 uM [5]: 31.4%
remaining at 2 h, 100 uM [5]: 12.4%
remaining at 3 h, 100 uM [5]: 12.6%
Free Fatty Acid Levels in Human Primary Adipocytes Expressed as a Percent of Forskolin Control: Percent of Control Value (Human Primary Adipocytes [1]): 73.9%
Free Fatty Acid Levels in Human Primary Adipocytes Expressed as a Percent of Isoproterenol Control: Percent of Control Value (Human Primary Adipocytes [2]): 71.6%
Free Fatty Acid Levels in 3T3-L1 Adipocytes Expressed as a Percent of Forskolin Control: Percent of Control Value (3T3-L1 Adipocytes [3]): 66.8%
Free Fatty Acid Levels in 3T3-L1 Adipocytes Expressed as a Percent of Isoproterenol Control: Percent of Control Value (3T3-L1 Adipocytes [4]): 43.1%
